Experimental data as given in patent US20090246134A1, “COMPOSITIONS AND METHODS FOR MODULATING GATED ION CHANNELS” (PainCeptor Pharma Corporation, priority 2007, published 2009).

What was measured:
[1] = test system: native sensory-neuron gated ion channels; assay: Patch-clamp electrophysiology of sensory neurons in primary culture; type: cell-based, rat; conditions: n=3
Excerpt: This example describes another in vitro assessment of the inhibitory activity of the compounds of the present invention utilizing patch-clamp electrophysiology of sensory neurons in primary culture.
Sensory neurons can be isolated and cultured in vitro from different animal species. The most widely used protocols use sensory neurons isolated from neonatal (Eckert, et al. (1997) J Neurosci Methods 77:183-190) and embryonic (Vasko, et al. (1994) J Neurosci 14:4987-4997) rat. […] Electrophysiology is performed similarly as described above in Example 2. In the voltage-clamp mode, trans-membrane currents are recorded. Compounds A and H at 1 μM inhibit the pH 6.5-induced inward current. In the current-clamp mode, change in the trans-membrane potential are recorded. Under acidic conditions (e.g., pH 6.5) the membrane depolarizes, leading to the firing of action potentials. Compounds A and H at 1 μM inhibit the acid-induced membrane depolarization and reduce the ensuing rate of action potential firing.

[2] = test system: formalin-induced pain in Sprague-Dawley rats; assay: Formalin model of acute tonic pain; type: in vivo, rat; conditions: rat, in vivo
Experimental: Male Sprague-Dawley rats are housed together in groups of three animals under standard conditions with unrestricted access to food and water. All experiments are conducted according to the ethical guidelines for investigations of experimental pain in conscious animals (Zimmerman, 1983)
Assessment of formalin-induced flinching behavior in normal, uninjured rats (body weight 150-180 g) was made with the use of an Automated Nociception Analyser (University of California, San Diego, USA). Briefly, this involved placing a small C-shaped metal band (10 mm wide×27 mm long) on the hindpaw of the rat to be tested. The rats (four rats were included in each testing session) were then placed in a cylindrical plexiglass observation chamber (diameter 30.5 cm and height 15 cm) for 20 min for adaptation purposes prior to being administered drug or vehicle according to the experimental paradigm being followed. After adaptation, individual rats were then gently restrained and formalin (5% in saline, 50 μl, s.c.) was injected into the plantar surface of the hindpaw using a 27 G needle. Rats were then returned to their separate observation chambers, each of which were in turn situated upon an enclosed detection device consisting of two electromagnetic coils designed to produce an electromagnetic field in which movement of the metal band could be detected. The analogue signal was then digitised and a software algorithm (LabView) applied to enable discrimination of flinching behaviour from other paw movements. A sampling interval of 1 min was used and on the basis of the resulting response patterns 5 phases of nociceptive behaviour were identified and scored: first phase (P1; 0-5 min), interphase (Int; 6-15 min), second phase (P2; […]), phase 2A (P2A; 16-40 min) and phase 2B (P2B; 41-60 min).
Nociceptive behavior was also determined manually every 5 min by measuring the amount of time spent in each of four behavioral categories: 0, treatment of the injected hindpaw is indistinguishable from that of the contralateral paw; 1, the injected paw has little or no weight placed on it; 2, the injected paw is elevated and is not in contact with any surface; 3, the injected paw is licked, bitten, or shaken. A weighted nociceptive score, ranging from 0 to 3 was calculated by multiplying the time spent in each category by the category weight, summing these products, and dividing by the total time for each 5 min block of time. (Coderre et al., Pain 1993; 54: 43). On the basis of the resulting response patterns, 2 phases of nociceptive behavior were identified and scored: first phase (P1; 0-5 min), interphase (Int; 6-15 min), second phase (P2; […]), phase 2A (P2A; 16-40 min) and phase 2B (P2B; 41-60 min).
Statistical analysis was performed using Prism™ 4.01 software package (GraphPad, San Diego, Calif., USA). The difference in response levels between treatment groups and control vehicle group was analyzed using an ANOVA followed by Bonferroni's method for post-hoc pair-wise comparisons. A p value<0.05 was considered to be significant
The effect of Compound A on pain induced by intraplantar formalin injection was investigated. Compound A was administered i.p. 30 min. before the formalin. Compound A was able to reduce the total pain score behavior (flinching, licking, biting) in phase 1 and 2 of the formalin test.

[3] = test system: CFA-induced change in weight bearing in Sprague-Dawley rats; assay: CFA model of chronic inflammatory pain, hindpaw weight bearing; type: in vivo, rat; conditions: 24 h after CFA; 60 min after drug; Compound A 5, 10, 20 mg/kg i.p.; Compound H 10, 30, 60 mg/kg; morphine 3, 6, 10 mg/kg; n=7-8
Experimental: Rats (body weight 260-300 g) were given a s.c. injection of CFA (50% in saline, 100 μl, Sigma) into the plantar surface of the hindpaw under brief halothane anaesthesia. After 24 h, they were then tested for hindpaw weight bearing responses, as assessed using an Incapacitance Tester (Linton Instrumentation, UK), (Zhu et al., 2005). The instrument incorporates a dual channel scale that separately measures the weight of the animal distributed to each hindpaw. While normal rats distribute their body weight equally between the two hindpaws (50-50), the discrepancy of weight distribution between an injured and non-injured paw is a natural reflection of the discomfort level in the injured paw (nocifensive behavior). The rats were placed in the plastic chamber designed so that each hindpaw rested on a separate transducer pad. […] For each rat, three readings from each paw were taken and then averaged. Side-to-side weight bearing difference was calculated as the average of the absolute value of the difference between two hindpaws from three trials (right paw reading-left paw reading).
Hindpaw weight bearing responses were measured in male Sprague-Dawley rats for 2-3 days prior to being given a hindpaw injection of CFA. Twenty-four hours later baseline responses were measured and rats were then administered Compound A (5, 10 and 20 mg/kg, i.p.), Compound H (10, 30 and 60 mg/kg) and morphine (3, 6 and 10 mg/kg). Weight bearing responses were then measured at 30, 60 and 120 min after drug or vehicle injection (data shown at 60 min.). […] All groups n=7-8.

CCN1CCc2c(-c3ccccc3)cc3c(c2C1)NC(=O)/C3=N/O [Compound H, 5-phenyl-6,7,8,9-tetrahydro-3-(hydroxyimino)-8-ethyl-1H-pyrrolo[3,2-h]isoquinoline-2(3H)-one]
acid-induced membrane depolarization ([1]; current-clamp mode, 1 μM): inhibit
rate of action potential firing ([1]; current-clamp mode, acidic conditions, 1 μM): reduce
activity of native sensory-neuron gated ion channels [1]: effectively modulate
pH 6.5-induced inward current ([1]; voltage-clamp mode, 1 μM): inhibit
acute tonic pain induced by formalin injection in the paw [2]: block
CFA-induced change in weight bearing compared with vehicle [3]: marked dose-dependent attenuation
